# From US20110178070A1, “PI3K/mTOR INHIBITORS” (TAKEDA PHARMACEUTICAL COMPANY LIMITED, priority 2008, published 2011)
# Experiments:
# mTOR = mTOR (Homo sapiens, UniProt P42345); assay: Z-Lyte biochemical assay, inhibition of mTOR (Example A); settings: IC50 (nM) mTOR, Table 1; 10 μM ATP;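 further: synthetic Ser/Thr peptide with coumarin–fluorescein FRET pair, phosphorylation protects from protease cleavage, coumarin/fluorescein emission ratio after 400 nm excitation, 1 h kinase reaction, 10-point 3-fold titrations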
# mTOR, sequence (P42345 1360-2549): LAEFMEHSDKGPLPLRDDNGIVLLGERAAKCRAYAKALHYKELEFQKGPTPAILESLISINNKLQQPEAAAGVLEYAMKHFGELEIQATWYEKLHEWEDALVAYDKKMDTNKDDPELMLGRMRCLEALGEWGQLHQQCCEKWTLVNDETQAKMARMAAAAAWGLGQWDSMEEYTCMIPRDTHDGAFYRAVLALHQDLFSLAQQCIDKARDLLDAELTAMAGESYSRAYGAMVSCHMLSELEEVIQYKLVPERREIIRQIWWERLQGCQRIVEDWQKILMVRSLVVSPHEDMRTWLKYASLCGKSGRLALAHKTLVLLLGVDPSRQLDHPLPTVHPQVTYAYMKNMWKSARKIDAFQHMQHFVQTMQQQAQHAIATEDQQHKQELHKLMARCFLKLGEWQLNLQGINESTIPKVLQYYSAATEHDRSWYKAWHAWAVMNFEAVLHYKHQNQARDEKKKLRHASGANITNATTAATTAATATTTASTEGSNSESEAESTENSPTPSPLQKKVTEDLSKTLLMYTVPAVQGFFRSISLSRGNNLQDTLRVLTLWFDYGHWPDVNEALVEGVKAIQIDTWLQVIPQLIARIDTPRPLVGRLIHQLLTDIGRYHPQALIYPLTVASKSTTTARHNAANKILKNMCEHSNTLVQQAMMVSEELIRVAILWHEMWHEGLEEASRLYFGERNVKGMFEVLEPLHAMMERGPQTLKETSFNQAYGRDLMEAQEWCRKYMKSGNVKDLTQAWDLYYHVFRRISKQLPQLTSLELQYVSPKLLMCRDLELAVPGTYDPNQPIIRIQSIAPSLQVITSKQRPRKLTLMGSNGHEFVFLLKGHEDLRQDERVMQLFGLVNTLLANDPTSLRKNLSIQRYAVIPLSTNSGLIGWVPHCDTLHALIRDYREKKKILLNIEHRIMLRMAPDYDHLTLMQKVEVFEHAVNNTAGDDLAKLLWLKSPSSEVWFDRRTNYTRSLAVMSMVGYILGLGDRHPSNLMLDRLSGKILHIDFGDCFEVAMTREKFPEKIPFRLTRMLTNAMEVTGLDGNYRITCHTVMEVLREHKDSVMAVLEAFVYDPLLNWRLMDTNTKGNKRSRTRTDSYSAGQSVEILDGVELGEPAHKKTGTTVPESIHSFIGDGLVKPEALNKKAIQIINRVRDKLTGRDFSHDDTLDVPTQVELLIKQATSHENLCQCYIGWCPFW
# Method: The inhibitory property of a compound relative to mTOR catalysis was determined by using the Z-Lyte™ biochemical assay conducted by Invitrogen Corporation (Madison, Wis.), which employs a fluorescence-based, coupled-enzyme format and is based on the differential sensitivity of phosphorylated and non-phosphorylated peptides to proteolytic cleavage. The peptide substrate is labeled with two fluorophores—one at each end—that make up a FRET pair.
# In the primary reaction, the kinase transfers the gamma-phosphate of ATP to a single tyrosine, serine or threonine residue in a synthetic FRET-peptide. In the secondary reaction, a site-specific protease recognizes and cleaves non-phosphorylated FRET-peptides. Phosphorylation of FRET-peptides suppresses cleavage by the Development Reagent. Cleavage disrupts FRET between the donor (i.e., coumarin) and acceptor (i.e., fluorescein) fluorophores on the FRET-peptide, whereas uncleaved, phosphorylated FRET-peptides maintain FRET. A ratio metric method, which calculates the ratio (the Emission Ratio) of donor emission to acceptor emission after excitation of the donor fluorophore at 400 nm, is used to quantitate reaction progress, as shown in the equation below.
# A significant benefit of this ratio metric method for quantitating reaction progress is the elimination of well-to-well variations in FRET-peptide concentration and signal intensities. […] Both cleaved and uncleaved FRET-peptides contribute to the fluorescence signals and therefore to the Emission Ratio. The extent of phosphorylation of the FRET-peptide can be calculated from the Emission Ratio.
# Recombinant human mTOR enzyme (amino acids 1360-2549), GST-tagged, expressed in and purified from insect cells (Invitrogen Corp. Cat. #PV4753; also known as FRAP1) was used for the assay. The 2×FRAP1 (mTOR)/Ser/Thr 11 Peptide Mixture (Invitrogen Corp.) was prepared in buffer containing 50 mM HEPES pH 7.5, 0.01% BRIJ-35, 10 mM MnCl2, 1 mM EGTA, 2 mM DTT, and 0.02% NaN3. The final 10 μL Kinase Reaction consisted of 7.2-58.1 ng FRAP1 (mTOR) and 2 μM Ser/Thr 11 Peptide in buffer containing 50 mM HEPES pH 7.5, 0.01% BRIJ-35, 5 mM MgCl2, 5 mM MnCl2, 1 mM EGTA, 1 mM DTT, and 0.01% NaN3.
# Test compounds are screened in 1% DMSO (final) in the well. For 10 point titrations, 3-fold serial dilutions are conducted from the starting concentration. The Ser/Thr 11 Peptide/Kinase Mixture was diluted to a 2× working concentration in buffer containing 50 mM HEPES pH 7.5, 0.01% BRIJ-35, 10 mM MnCl2, 1 mM EGTA, 2 mM DTT, and 0.02% NaN3. The ATP solution was diluted to a 4× working concentration in buffer containing 50 mM HEPES pH 7.5, 0.01% BRIJ-35, 10 mM MgCl2, and 1 mM EGTA.
# After the 1 hour Kinase Reaction incubation, 5 μL of a 1:16 dilution of Development Reagent B was added, and the development reaction was allowed to proceed for an additional 1 hour at room temperature. The assay plate was then read on a fluorescence plate reader and the data analyzed as outlined above.
# IC50 values were calculated by non-linear least squares curve fitting using XLfit from IDBS to fit the results to model number 205 (sigmoidal dose-response model).
# [1] = target: T1, PI3Kalpha (PIK3CA/PIK3R1, p110 alpha/p85 alpha) (Homo sapiens, UniProt P42336); assay: Adapta universal kinase assay, inhibition of PI3Kalpha (Example B); format: biochemical; settings: Table 1; 25 μM ATP; read-out: IC50 (nM) PI3Kα
# T1 construct: recombinant human, full length, N-terminal His-tagged phosphoinositide-3-kinase catalytic subunit alpha polypeptide; His (N); purchased Invitrogen Corp. PV4788; host or cells: insect cells
# T1 sequence (P42336 whole entry): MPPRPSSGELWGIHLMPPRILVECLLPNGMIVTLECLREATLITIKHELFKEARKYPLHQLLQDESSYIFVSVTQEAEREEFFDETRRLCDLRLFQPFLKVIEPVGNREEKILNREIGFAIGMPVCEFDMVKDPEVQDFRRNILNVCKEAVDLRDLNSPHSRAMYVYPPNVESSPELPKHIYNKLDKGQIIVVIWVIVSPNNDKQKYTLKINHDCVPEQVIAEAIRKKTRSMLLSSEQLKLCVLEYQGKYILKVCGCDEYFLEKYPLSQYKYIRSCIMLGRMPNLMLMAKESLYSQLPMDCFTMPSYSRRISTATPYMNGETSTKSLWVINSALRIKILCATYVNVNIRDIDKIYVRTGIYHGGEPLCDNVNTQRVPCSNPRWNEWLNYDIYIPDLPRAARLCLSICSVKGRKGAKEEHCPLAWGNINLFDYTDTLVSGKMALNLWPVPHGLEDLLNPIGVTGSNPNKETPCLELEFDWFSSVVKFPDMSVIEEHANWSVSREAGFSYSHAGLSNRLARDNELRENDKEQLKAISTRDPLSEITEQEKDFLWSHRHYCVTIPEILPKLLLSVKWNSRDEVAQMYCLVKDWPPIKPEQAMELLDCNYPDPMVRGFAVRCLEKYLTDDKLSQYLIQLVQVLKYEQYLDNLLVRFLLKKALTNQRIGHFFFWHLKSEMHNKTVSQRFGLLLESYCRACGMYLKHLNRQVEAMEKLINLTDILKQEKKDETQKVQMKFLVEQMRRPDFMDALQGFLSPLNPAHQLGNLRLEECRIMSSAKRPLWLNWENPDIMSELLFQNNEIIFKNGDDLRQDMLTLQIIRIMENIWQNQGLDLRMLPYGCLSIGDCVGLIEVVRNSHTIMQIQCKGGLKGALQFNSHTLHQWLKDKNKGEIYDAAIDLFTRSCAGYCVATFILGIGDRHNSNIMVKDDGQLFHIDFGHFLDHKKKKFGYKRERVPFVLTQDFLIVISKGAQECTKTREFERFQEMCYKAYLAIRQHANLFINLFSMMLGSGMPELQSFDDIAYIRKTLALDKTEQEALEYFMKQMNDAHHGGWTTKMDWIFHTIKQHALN
# T1 sequence (P27986 whole entry partner): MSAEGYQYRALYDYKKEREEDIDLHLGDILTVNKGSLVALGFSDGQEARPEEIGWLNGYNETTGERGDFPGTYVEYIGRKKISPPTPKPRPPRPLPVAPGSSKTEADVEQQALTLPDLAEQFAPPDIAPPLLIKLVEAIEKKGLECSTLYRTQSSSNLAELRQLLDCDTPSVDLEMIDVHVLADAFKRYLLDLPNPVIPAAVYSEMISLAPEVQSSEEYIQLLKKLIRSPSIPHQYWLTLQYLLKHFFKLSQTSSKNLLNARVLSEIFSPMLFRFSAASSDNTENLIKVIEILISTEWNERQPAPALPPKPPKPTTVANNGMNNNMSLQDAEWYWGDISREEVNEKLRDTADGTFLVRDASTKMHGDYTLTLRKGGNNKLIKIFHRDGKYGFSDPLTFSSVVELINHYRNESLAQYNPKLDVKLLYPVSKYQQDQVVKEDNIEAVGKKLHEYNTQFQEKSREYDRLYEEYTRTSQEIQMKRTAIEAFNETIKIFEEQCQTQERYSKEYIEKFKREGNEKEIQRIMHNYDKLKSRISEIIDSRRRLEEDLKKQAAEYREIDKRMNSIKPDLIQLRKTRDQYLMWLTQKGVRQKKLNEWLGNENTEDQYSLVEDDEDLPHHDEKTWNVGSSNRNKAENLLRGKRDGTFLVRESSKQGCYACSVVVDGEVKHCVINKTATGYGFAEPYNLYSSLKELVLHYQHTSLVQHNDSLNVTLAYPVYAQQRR
# From the text: In contrast to ATP depletion assays, the Adapta™ assay is extremely sensitive to ADP formation such that a majority of the signal change occurs in the first 10-20% conversion of ATP to ADP. This makes the Adapta™ universal kinase assay ideally suited for use with low activity kinases.
# The principle of the Adapta™ universal kinase assay is outlined below. The assay itself can be divided into two phases: a kinase reaction phase, and an ADP detection phase. In the kinase reaction phase, all components required for the kinase reaction are added to the well, and the reaction is allowed to incubate for 60 minutes. After the reaction, a detection solution consisting of a europium labeled anti-ADP antibody, an Alexa Fluor® 647 labeled ADP tracer, and EDTA (to stop the kinase reaction) is added to the assay well. ADP formed by the kinase reaction (in the absence of an inhibitor) will displace the Alexa Fluor® 647 labeled ADP tracer from the antibody, resulting in a decrease in the TR-FRET signal.
# ADP formation is determined by calculating the emission ratio from the assay well. The emission ratio is calculated by dividing the intensity of the tracer (acceptor) emission by the intensity of the Eu (donor) emission at 615 nm as shown in the equation below.
# Since the Adapta™ technology measures ADP formation (i.e. conversion of ATP to ADP) it can be used to measure any type of ATP hydrolysis, including intrinsic ATPase activity of kinases. In this case, the substrate is water, not a lipid or peptide (Kashem, et al., 2007, J. Biomol. Screen. 12, 1, 70-83).
# The combination of recombinant human, full length, N-terminal His-tagged phosphoinositide-3-kinase catalytic subunit alpha polypeptide ([…], PI3Kalpha), expressed in and purified from insect cells along with co-expressed recombinant, full length, untagged phosphoinositide-3-kinase regulatory subunit 1 (p85 alpha) (combination also known as PIK3CA/PIK3R1; Invitrogen Corp. Cat # PV4788) was used as the enzyme for this assay.
# The test compounds are screened at 1% DMSO (final) in the well. […] The PIP2:PS Substrate/Kinase Mixture was diluted 2× to working concentration in Kinase Buffer containing 50 mM HEPES pH 7.5, 0.1% CHAPS, and 1 mM EGTA. […] The Detection Mix was prepared in TR-FRET Dilution Buffer.
# After the 1 hour Kinase Reaction incubation at room temperature, 5 μL of Detection Mix was added, followed by another 30 sec plate shake to ensure mixing, and the Detection Mix was allowed to equilibrate for 1 hour at room temperature.
# Lipid substrates are prepared by creating lipid vesicles. In some cases, these vesicles include a carrier lipid, such as phosphatidylserine (PS). In the assay conditions section above, “PIP2:PS” refers to large unilamellar vesicles (LUVs) containing five mole percent L-α-Phosphatidylinositol-4,5-bisphosphate (PIP2) and ninety-five percent phosphatidylserine (PS), and the concentration listed refers only to the PIP2 substrate, not the PS carrier lipid.
SMILES,IC50 (mTOR),IC50 [1]
"CC(=O)Nc1nc2ccc(-c3ccccc3)cc2s1 [Example 10, N-(6-Phenylbenzo[d]thiazol-2-yl)acetamide]",> 1000 nM,–
"CC(=O)Nc1cccc(-c2ccc3nc(NC(C)=O)sc3c2)c1 [Example 41, N-(3-(2-Acetamidobenzo[d]thiazol-6-yl)phenyl)acetamide]",> 1000 nM,> 1000 nM
"CC(=O)Nc1nc2ccc(-c3ccc4c(c3)CC(=O)N4)nc2s1 [Example 31, N-(5-(2-oxoindolin-5-yl)thiazolo[5,4-b]pyridin-2-yl)acetamide]",100 to 1000 nM,–
"CC(=O)Nc1nc2ccc(-c3ccc4[nH]ccc4c3)cc2s1 [Example 12, N-(6-(1H-Indol-5-yl)benzo[d]thiazol-2-yl)acetamide]",> 1000 nM,–
"CC(=O)Nc1ccc(-c2ccc3nc(NC(C)=O)sc3c2)cc1 [Example 39, N-(4-(2-Acetamidobenzo[d]thiazol-6-yl)phenyl)acetamide]",100 to 1000 nM,–
"CC(=O)Nc1nc2ccc(-c3cccc4[nH]ccc34)cc2s1 [Example 14, N-(6-(1H-Indol-4-yl)benzo[d]thiazol-2-yl)acetamide]",> 1000 nM,> 1000 nM
"CS(=O)(=O)Nc1cc(-c2ccc3nc(NC(=O)C4CC4)sc3n2)cnc1Cl [Example 9, N-(5-(6-Chloro-5-(methylsulfonamido)pyridin-3-yl)thiazolo[5,4-b]pyridin-2-yl)cyclopropanecarboxamide]",< 100 nM,–
"CC(=O)Nc1nc2ccc(-c3ccc(N)cc3C(F)(F)F)cc2s1 [Example 19, N-(6-(4-Amino-2-(trifluoromethyl)phenyl)benzo[d]thiazol-2-yl)acetamide]",> 1000 nM,–
"CC(=O)Nc1nc2ccc(-c3cnc(Cl)c(NS(=O)(=O)c4ccccc4)c3)cc2s1 [Example 18, N-(6-(6-Chloro-5-(phenylsulfonamido)pyridin-3-yl)benzo[d]thiazol-2-yl)acetamide]",< 100 nM,–
"CC(=O)Nc1nc2ccc(-c3cnc(N)cn3)cc2s1 [Example 20, N-(6-(5-Aminopyrazin-2-yl)benzo[d]thiazol-2-yl)acetamide]",100 to 1000 nM,–
"CC(=O)Nc1nc2ccc(-c3cnc(Cl)c(NS(C)(=O)=O)c3)cc2s1 [Example 48, N-(6-(6-Chloro-5-(methylsulfonamido)pyridin-3-yl)benzo[d]thiazol-2-yl)acetamide]",< 100 nM,–
"CC(=O)Nc1nc2ccc(-c3ccc4[nH]cc(C=O)c4c3)cc2s1 [Example 15, N-(6-(3-Formyl-1H-indol-5-yl)benzo[d]thiazol-2-yl)acetamide]",< 100 nM,–
"CC(=O)Nc1nc2ccc(-c3cnc(Cl)c(NS(C)(=O)=O)c3)nc2s1 [Example 8, N-(5-(6-Chloro-5-(methylsulfonamido)pyridin-3-yl)thiazolo[5,4-b]pyridin-2-yl)acetamide]",< 100 nM,–
"CC(=O)Nc1nc2ccc(-c3cccnc3)cc2s1 [Example 11, N-(6-(Pyridin-3-yl)benzo[d]thiazol-2-yl)acetamide]",100 to 1000 nM,–
"CC(=O)Nc1nc2ccc(-c3cnc(Cl)c(NS(=O)(=O)C4CC4)c3)nc2s1 [Example 49, N-(5-(6-Chloro-5-(cyclopropanesulfonamido)pyridin-3-yl)thiazolo[5,4-b]pyridin-2-yl)acetamide]",> 1000 nM,–
"CC(=O)Nc1nc2ccc(-c3cnc(Cl)c(NS(=O)(=O)c4ccccc4)c3)nc2s1 [Example 7, N-(5-(6-Chloro-5-(phenylsulfonamido)pyridin-3-yl)thiazolo[5,4-b]pyridin-2-yl)acetamide]",< 100 nM,–
"CC(=O)Nc1nc2ccc(-c3cnc4cc[nH]c4c3)nc2s1 [Example 25, N-(5-(1H-Pyrrolo[3,2-b]pyridin-6-yl)thiazolo[5,4-b]pyridin-2-yl)acetamide]",< 100 nM,–
"CC(=O)Nc1nc2ccc(-c3cnc4[nH]ccc4c3)nc2s1 [Example 24, N-(5-(1H-Pyrrolo[2,3-b]pyridin-5-yl)thiazolo[5,4-b]pyridin-2-yl)acetamide]",< 100 nM,–
"CC(=O)Nc1nc2ccc(-c3ccc4[nH]cc(C(N)=O)c4c3)cc2s1 [Example 17, 5-(2-Acetamidobenzo[d]thiazol-6-yl)-1H-indole-3-carboxamide]",> 1000 nM,–
"CC(=O)Nc1nc2ccc(-c3ccc(N)cc3)cc2s1 [Example 13, N-(6-(4-Aminophenyl)benzo[d]thiazol-2-yl)acetamide]",> 1000 nM,–
"CNC(=O)c1cccc(-c2ccc3nc(NC(C)=O)sc3c2)c1 [Example 40, 3-(2-Acetamidobenzo[d]thiazol-6-yl)-N-methylbenzamide]",> 1000 nM,–
"CCS(=O)(=O)Nc1cc(-c2ccc3nc(NC(C)=O)sc3n2)cnc1Cl [Example 47, N-(5-(6-Chloro-5-(ethylsulfonamido)pyridin-3-yl)thiazolo[5,4-b]pyridin-2-yl)acetamide]",< 100 nM,–

# Other lines, results leading:
IC50 (mTOR),IC50 [1],SMILES
> 1000 nM,–,"CC(=O)Nc1nc2ccc(-c3ccccc3N)nc2s1 [Example 34, N-(5-(2-Aminophenyl)thiazolo[5,4-b]pyridin-2-yl)acetamide]"
< 100 nM,–,"CNC(=O)c1ccc(-c2ccc3nc(NC(C)=O)sc3n2)cc1 [Example 35, 4-(2-Acetamidothiazolo[5,4-b]pyridin-5-yl)-N-methylbenzamide]"
100 to 1000 nM,–,"CC(=O)Nc1nc2ccc(-c3ccc4[nH]ncc4c3)nc2s1 [Example 3, N-(5-(1H-Indazol-5-yl)thiazolo[5,4-b]pyridin-2-yl)acetamide]"
< 100 nM,–,"CC(=O)Nc1nc2ccc(-c3ccc(-c4nnc[nH]4)cc3)nc2s1 [Example 42, N-(5-(4-(4H-1,2,4-Triazol-3-yl)phenyl)thiazolo[5,4-b]pyridin-2-yl)acetamide]"
< 100 nM,–,"CC(=O)Nc1nc2ccc(-c3ccc(C(N)=O)cc3)nc2s1 [Example 38, 4-(2-Acetamidothiazolo[5,4-b]pyridin-5-yl)benzamide]"
100 to 1000 nM,–,"CNC(=O)c1ccc(-c2ccc3nc(NC(C)=O)sc3n2)cn1 [Example 6, 5-(2-Acetamidothiazolo[5,4-b]pyridin-5-yl)-N-methylpicolinamide]"
100 to 1000 nM,–,"CC(=O)Nc1nc2ccc(-c3ccc4nccn4c3)nc2s1 [Example 22, N-(5-(Imidazo[1,2-a]pyridin-6-yl)thiazolo[5,4-b]pyridin-2-yl)acetamide]"
100 to 1000 nM,–,"CONC(=O)c1ccc(-c2ccc3nc(NC(C)=O)sc3n2)cc1 [Example 30, 4-(2-Acetamidothiazolo[5,4-b]pyridin-5-yl)-N-methoxybenzamide]"
100 to 1000 nM,–,"CC(=O)Nc1nc2ccc(-c3ccc(C(=O)NC4CC4)cc3)nc2s1 [Example 37, 4-(2-Acetamidothiazolo[5,4-b]pyridin-5-yl)-N-cyclopropylbenzamide]"
100 to 1000 nM,–,"CC(=O)Nc1ccc(-c2ccc3nc(NC(C)=O)sc3n2)cc1 [Example 36, N-(5-(4-Acetamidophenyl)thiazolo[5,4-b]pyridin-2-yl)acetamide]"
> 1000 nM,–,"CONC(=O)c1cccc(-c2ccc3nc(NC(C)=O)sc3n2)c1 [Example 27, 3-(2-Acetamidothiazolo[5,4-b]pyridin-5-yl)-N-methoxybenzamide]"
100 to 1000 nM,–,"CC(=O)Nc1ccc(-c2ccc3nc(NC(C)=O)sc3n2)cn1 [Example 4, N-(5-(6-Acetamidopyridin-3-yl)thiazolo[5,4-b]pyridin-2-yl)acetamide]"
100 to 1000 nM,–,"CC(=O)Nc1nc2ccc(-c3ccc(C#N)nc3)nc2s1 [Example 23, N-(5-(6-Cyanopyridin-3-yl)thiazolo[5,4-b]pyridin-2-yl)acetamide]"
100 to 1000 nM,–,"CC(=O)Nc1nc2ccc(-c3ccc4[nH]ccc4c3)nc2s1 [Example 2, N-(5-(1H-Indol-5-yl)thiazolo[5,4-b]pyridin-2-yl)acetamide]"
> 1000 nM,–,"CC(=O)Nc1nc2ccc(-c3ccncc3)nc2s1 [Example 33, N-(5-(Pyridin-4-yl)thiazolo[5,4-b]pyridin-2-yl)acetamide]"
